# Source: patent US20250288584A1, “COMBINATIONS COMPRISING POSITIVE ALLOSTERIC MODULATORS OR ORTHOSTERIC AGONISTS OF METABOTROPIC GLUTAMATERGIC RECEPTOR SUBTYPE 2 AND THEIR USE” (JANSSEN PHARMACEUTICA NV, priority 2014, published 2025)
# “And” between values parts separate entries of the source, which are not always exact repeats. Equal values may be shown once. Read-outs that look alike come from different tables or passages of the source.
# What was measured:
# Type in all cases: in vivo, mice
# [1] = Plasma and brain levels (pK/pD analysis); details: for concentration at 0.5 h / concentration at 1 h: mouse; for concentration at 0.5 h: subcutaneous; for concentration at 1 h: intraperitoneal
# Experimental: In various tests, animals were sacrificed following testing, and trunk blood and/or brain tissue (whole brains) was collected for quantification of drug levels. Immediately after testing, animals were decapitated and trunk blood was collected into a BD Vacutainer® tube containing K2EDTA and chilled on ice until centrifugation. Following centrifugation (13000-18000 rpm, 5-7 min), the plasma was removed and transferred to a labeled microcentrifuge tube and stored at −80° C. For brain tissue collection, brains were removed immediately following decapitation and flash frozen. The frozen sample was placed in a labeled centrifuge tube and stored at −80° C.
# In addition to recording the efficacy and toxicity data for these compounds alone or in combination, both plasma and brain samples were collected from each of the groups for pharmacokinetic/pharmacokinetic analysis.
# [2] = test system: 6 Hz (32 mA) psychomotor seizures; test: 6 Hz psychomotor seizure test, 32 mA (incl. TPE determination); details: for ED50: Mus musculus, read-out: ED50 (95% CI) 32 mA
# In short: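 Mice dosed s.c. into a loose skin fold (one compound p.o.) at 0.01 mL/g body weight. Focal seizures induced by corneal stimulation (6 Hz, 0.2 msec rectangular pulse, 3 sec) at 32 mA; absence of stun, forelimb clonus, vibrissae twitching and Straub-tail scored as protection. TPE determined in this assay; ED50 from evenly spaced doses.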
# [3] = Minimal motor impairment (rotarod)
# [4] = LEV 10 mg/kg combined with Co. No. 2 3 mg/kg, 6 Hz 44 mA
compound,measurement,setting,value
Fc1ccc(N2CCN(Cc3ccn4c(CC5CC5)nnc4c3C(F)(F)F)CC2)c(F)c1 [Co. No. 1],"Mean Plasma Level Co. No. 1, statistical outlier removed",[1]; Co. No. 1 2.5 mg/kg combined with LEV 10 mg/kg,(390) ng/ml
same,concentration at 0.5 h,"[1]; plasma, 2.5 mg/kg, Mean Plasma Levels (non-combination) Co. No. 1, Co. No. 1 2.5 mg/kg alone",438 ng/mL
same,concentration at 0.5 h,"[1]; plasma, Mean Plasma Level Co. No. 1, Co. No. 1 2.5 mg/kg combined with LEV 10 mg/kg",657 ng/mL
same,# protected/# tested,"[2]; 0.5 mg/kg s.c., 0.5 h",1/8
same,# protected/# tested,"[2]; 2.5 mg/kg s.c., 0.25 h",1/8
same,# protected/# tested,"[2]; 2.5 mg/kg s.c., 0.5 h",5/8 and 7/16
same,# protected/# tested,"[2]; 5 mg/kg s.c., 0.25 h",8/12
same,# protected/# tested,"[2]; 5 mg/kg s.c., 0.5 h",8/12
same,# protected/# tested,"[2]; 10 mg/kg s.c., 0.25 h",4/4
same,# protected/# tested,"[2]; 10 mg/kg s.c., 0.5 h",4/4 and 7/8
same,# protected/# tested,"[2]; 10 mg/kg s.c., 1 h",3/4
same,# protected/# tested,"[2]; 10 mg/kg s.c., 2 h",0/4
same,# protected/# tested,"[2]; 10 mg/kg s.c., 4 h",0/4
same,# protected/# tested,"[2]; 20 mg/kg s.c., 0.5 h",8/8
same,ED50,"[2]; sc, at TPE",2.8 mg/kg
same,ED50 (95% CI) 32 mA,"[2]; s.c., at TPE",ED50 (95% CI): 2.8 mg/kg (1.3 to 4.3)
same,# rotarod motor impairment/# tested,"[3]; 0.5 mg/kg s.c., 0.5 h, 32 mA group",0/8
same,# rotarod motor impairment/# tested,"[3]; 2.5 mg/kg s.c., 0.25 h, 32 mA group",0/0
same,# rotarod motor impairment/# tested,"[3]; 2.5 mg/kg s.c., 0.5 h, 32 mA group",0/0 and 0/16
same,# rotarod motor impairment/# tested,"[3]; 2.5 mg/kg s.c., 0.5 h, 44 mA group",0/8
same,# rotarod motor impairment/# tested,"[3]; 5 mg/kg s.c., 0.25 h, 32 mA group",0/0
same,# rotarod motor impairment/# tested,"[3]; 5 mg/kg s.c., 0.5 h, 32 mA group",0/0 and 0/12
same,# rotarod motor impairment/# tested,"[3]; 10 mg/kg s.c., 0.25 h, 32 mA group",0/0
same,# rotarod motor impairment/# tested,"[3]; 10 mg/kg s.c., 0.5 h, 32 mA group",0/0 and 0/8
same,# rotarod motor impairment/# tested,"[3]; 10 mg/kg s.c., 0.5 h, 44 mA group",0/8
same,# rotarod motor impairment/# tested,"[3]; 10 mg/kg s.c., 1 h, 32 mA group",0/0
same,# rotarod motor impairment/# tested,"[3]; 10 mg/kg s.c., 2 h, 32 mA group",0/0
same,# rotarod motor impairment/# tested,"[3]; 10 mg/kg s.c., 4 h, 32 mA group",0/0
same,# rotarod motor impairment/# tested,"[3]; 15 mg/kg s.c., 0.5 h, 44 mA group",0/8
same,# rotarod motor impairment/# tested,"[3]; 20 mg/kg s.c., 0.5 h, 32 mA group",1/8
same,# rotarod motor impairment/# tested,"[3]; 20 mg/kg s.c., 0.5 h, 44 mA group",1/8
"C[C@H](Oc1ccc(F)cc1F)c1ccn2c(CC3CC3)nnc2c1C(F)(F)F [Co. No. 6-b, 3-(Cyclopropylmethyl)-7-[(1S)-1-(2,4-difluorophenoxy)ethyl]-8-(trifluoromethyl)[1,2,4]triazolo[4,3-a]pyridine]",# protected/# tested,"[2]; 2.5 mg/kg p.o., 0.5 h",1/8
same,# protected/# tested,"[2]; 5 mg/kg p.o., 0.5 h",2/8
same,# protected/# tested,"[2]; 10 mg/kg p.o., 0.25 h",1/4
same,# protected/# tested,"[2]; 10 mg/kg p.o., 0.5 h",3/4 and 6/8
same,# protected/# tested,"[2]; 10 mg/kg p.o., 1 h",0/4
same,# protected/# tested,"[2]; 10 mg/kg p.o., 2 h",1/4
same,# protected/# tested,"[2]; 10 mg/kg p.o., 4 h",0/4
same,# protected/# tested,"[2]; 20 mg/kg p.o., 0.25 h",4/4
same,# protected/# tested,"[2]; 20 mg/kg p.o., 0.5 h",3/4 and 7/8
same,# protected/# tested,"[2]; 20 mg/kg p.o., 1 h",4/4
same,# protected/# tested,"[2]; 20 mg/kg p.o., 2 h",0/4
same,# protected/# tested,"[2]; 20 mg/kg p.o., 4 h",1/4
same,ED50,"[2]; po, 0.5 h, p.o., 0.5 h TPE",7.2 mg/kg
same,ED50 (95% CI) 32 mA,"[2]; p.o., 0.5 h TPE",ED50 (95% CI): 7.2 mg/kg (4.2 to 11.8)
same,# rotarod motor impairment/# tested,"[3]; 2.5 mg/kg p.o., 0.5 h, 32 mA group",0/8
same,# rotarod motor impairment/# tested,"[3]; 5 mg/kg p.o., 0.5 h, 32 mA group",0/8
same,# rotarod motor impairment/# tested,"[3]; 10 mg/kg p.o., 0.25 h, 32 mA group",0/4
same,# rotarod motor impairment/# tested,"[3]; 10 mg/kg p.o., 0.5 h, 32 mA group",0/4 and 0/8
same,# rotarod motor impairment/# tested,"[3]; 10 mg/kg p.o., 0.5 h, 44 mA group",0/8
same,# rotarod motor impairment/# tested,"[3]; 10 mg/kg p.o., 1 h, 32 mA group",0/4
same,# rotarod motor impairment/# tested,"[3]; 10 mg/kg p.o., 2 h, 32 mA group",0/4
same,# rotarod motor impairment/# tested,"[3]; 10 mg/kg p.o., 4 h, 32 mA group",0/4
same,# rotarod motor impairment/# tested,"[3]; 15 mg/kg p.o., 0.5 h, 44 mA group",0/8
same,# rotarod motor impairment/# tested,"[3]; 20 mg/kg p.o., 0.25 h, 32 mA group",0/4
same,# rotarod motor impairment/# tested,"[3]; 20 mg/kg p.o., 0.5 h, 32 mA group",0/4 and 0/8
same,# rotarod motor impairment/# tested,"[3]; 20 mg/kg p.o., 0.5 h, 44 mA group",0/8
same,# rotarod motor impairment/# tested,"[3]; 20 mg/kg p.o., 1 h, 32 mA group",0/4
same,# rotarod motor impairment/# tested,"[3]; 20 mg/kg p.o., 2 h, 32 mA group",0/4
same,# rotarod motor impairment/# tested,"[3]; 20 mg/kg p.o., 4 h, 32 mA group",0/4
same,# rotarod motor impairment/# tested,"[3]; 40 mg/kg p.o., 0.5 h, 44 mA group",0/8
"CC[C@@H](C(N)=O)N1CCCC1=O [LEV, (S)-2-(2-oxopyrrolidin-1-yl) butanamide, reference compound]","Plasma (ng/ml) LEV, individual mice","[1]; LEV 10 mg/kg combined with Co. No. 1 2.5 mg/kg, 6 Hz 44 mA",9780 ng/ml (2×) and 13700 ng/ml and 10100 ng/ml and 9350 ng/ml and 8580 ng/ml and 10900 ng/ml
same,"Brain (ng/ml) LEV, individual mice",[1]; [4],4760 ng/mL and 6380 ng/mL and 3960 ng/mL and 6290 ng/mL and 7990 ng/mL
same,"Plasma (ng/ml) LEV, individual mice",[1]; [4],3540 ng/mL and 3850 ng/mL and 7150 ng/mL and 3890 ng/mL and 6450 ng/mL and 8200 ng/mL
same,concentration at 1 h,"[1]; brain, 10 mg/kg, LEV 10 mg/kg alone (Co. No. 2 study), read-out: Mean Brain Level (non-combination) LEV",5770 ng/mL
same,concentration at 1 h,"[1]; brain, LEV 10 mg/kg combined with Co. No. 2 3 mg/kg, read-out: Mean Brain Level LEV",5880 ng/mL
same,concentration at 1 h,"[1]; plasma, 10 mg/kg, LEV 10 mg/kg alone (Co. No. 1 study), read-out: Mean Plasma Levels (non-combination) LEV",8250 ng/mL
same,concentration at 1 h,"[1]; plasma, 10 mg/kg, LEV 10 mg/kg alone (Co. No. 2 study), read-out: Mean Plasma Level (non-combination) LEV",8750 ng/mL
same,concentration at 1 h,"[1]; plasma, LEV 10 mg/kg combined with Co. No. 1 2.5 mg/kg, 6 Hz 44 mA, read-out: Plasma (ng/ml) LEV, individual mice",10300 ng/mL
same,concentration at 1 h,"[1]; plasma, LEV 10 mg/kg combined with Co. No. 1 2.5 mg/kg, read-out: Mean Plasma Level LEV",10300 ng/mL
same,concentration at 1 h,"[1]; plasma, LEV 10 mg/kg combined with Co. No. 2 3 mg/kg, read-out: Mean Plasma Level LEV",5510 ng/mL
same,# motortox/# tested,"[3]; LEV alone 10 mg/kg i.p., 1 h, 44 mA group",0/6 and 0/8
same,# rotarod motor impairment/# tested,[3]; LEV alone 200 mg/kg,0/8
same,# rotarod motor impairment/# tested,"[3]; LEV alone 200 mg/kg i.p., 44 mA group",0/8
same,# rotarod motor impairment/# tested,"[3]; LEV alone 350 mg/kg i.p., 44 mA group",0/8
same,# rotarod motor impairment/# tested,[3]; LEV alone 400 mg/kg,0/9
same,# rotarod motor impairment/# tested,"[3]; LEV alone 400 mg/kg i.p., 44 mA group",0/9
same,# rotarod motor impairment/# tested,[3]; LEV alone 800 mg/kg,0/12
same,# rotarod motor impairment/# tested,"[3]; LEV alone 800 mg/kg i.p., 44 mA group",0/12
